Key:
RARγ = biological target: T1, RARγ (Homo sapiens, UniProt P13631, E108G/G109S/G112V); test: PGR assay (RAR-P-GR holoreceptor transactivation), RARγ; assay type: cell-based; conditions: for EC50: PGR assay (transactivation), CV-1 cells, luciferase reporter; for % Efficiency RARγ: efficiency relative to all-trans-retinoic acid, PGR assay
T1 construct: expressed in transfected cells; host or cells: CV-1 cells
T1 sequence (P13631 1-454 E108G/G109S/G112V): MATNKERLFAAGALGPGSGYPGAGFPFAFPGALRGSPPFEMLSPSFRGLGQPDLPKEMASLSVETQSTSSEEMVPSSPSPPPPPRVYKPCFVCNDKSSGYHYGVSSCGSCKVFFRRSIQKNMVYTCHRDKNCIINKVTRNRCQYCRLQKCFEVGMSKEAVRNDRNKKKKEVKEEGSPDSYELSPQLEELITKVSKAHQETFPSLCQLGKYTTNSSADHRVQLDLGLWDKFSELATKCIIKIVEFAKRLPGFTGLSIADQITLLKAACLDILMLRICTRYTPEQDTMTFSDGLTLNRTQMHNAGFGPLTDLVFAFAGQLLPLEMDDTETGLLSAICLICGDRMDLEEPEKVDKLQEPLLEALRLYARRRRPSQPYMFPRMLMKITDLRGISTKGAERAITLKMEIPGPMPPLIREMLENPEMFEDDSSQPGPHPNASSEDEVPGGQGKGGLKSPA
T1 sequence (P19793 1-462 partner): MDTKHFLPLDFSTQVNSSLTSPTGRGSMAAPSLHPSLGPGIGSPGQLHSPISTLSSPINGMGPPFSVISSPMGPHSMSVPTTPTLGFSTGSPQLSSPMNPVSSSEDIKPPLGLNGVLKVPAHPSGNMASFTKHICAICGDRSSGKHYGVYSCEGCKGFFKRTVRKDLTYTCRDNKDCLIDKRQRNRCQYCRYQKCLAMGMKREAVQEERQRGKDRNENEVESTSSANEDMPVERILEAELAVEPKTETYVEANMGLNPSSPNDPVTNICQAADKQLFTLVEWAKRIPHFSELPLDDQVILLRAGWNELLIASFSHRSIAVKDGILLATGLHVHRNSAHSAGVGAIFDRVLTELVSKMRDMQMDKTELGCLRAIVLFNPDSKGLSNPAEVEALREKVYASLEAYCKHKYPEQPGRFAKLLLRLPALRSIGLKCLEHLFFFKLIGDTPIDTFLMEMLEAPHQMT
From the text: (§1) A holoreceptor transactivation assay and a ligand binding assay which measure the antagonist/agonist like activity of the compounds of the invention, or their ability to bind to the several retinoid receptor subtypes, respectively, are described in published PCT Application No. WO WO93/11755 (particularly on pages 30-33 and 37-41) published on Jun. 24, 1993, the specification of which is also incorporated herein by reference. A detailed experimental procedure for holoreceptor transactivations has been described by Heyman et al. Cell 1992, 68, 397-406; Allegretto et al. J. Biol. Chem. 1993 268, 26625-26633, and Mangelsdorf et al. The Retinoids: Biology, Chemistry and Medicine, pp 319-349, Raven Press Ltd., New York, which are expressly incorporated herein by reference. The results obtained in this assay are expressed in EC50 numbers, as they are also in the chimeric receptor transactivation assay. The results of ligand binding assay are expressed in Kd numbers. (See Cheng et al. Biochemical Pharmacology 22, 3099-3108, expressly incorporated herein by reference.) Still another transactivation assay, the “PGR assay” is described in the publication Klein et al. J. Biol. Chem. 1996, 271, 22692-22696, which is expressly incorporated herein by reference, and a detailed description is also provided below. The results of the PGR assay are also expressed in EC50 numbers (nanomolar concentration).
(§2) RAR-P-GR holoreceptor Transactivation Assay
(§3) CV-1 cells (4×10^5 cells/well) were transiently transfected with the luciferase reporter plasmid MTV-4(R5G)-Luc (0.7 μg/well) containing four copies of the R5G retinoid DNA response element along with the RXRα expression plasmid pRS-hRXRa (0.1 μg/well) and one of the RAR-P-GR expression plasmids (0.05 μg/well) in 12 well plates via calcium phosphate precipitation Chen et al. Mol. Cell. Biol. 1987, 7, 2745-2752 as described by Klein et al. J. Biol. Chem. 1996, 271, 22692, referenced above. The three different RAR-P-GR expression plasmids, pRS-RARα-P-GR, pcDNA3-RARβ-P-GR and pcDNA3-RARγ-P-GR, express RARα, RARβ and RARγ receptors, respectively, which contain modified DNA binding domains such that their “P-boxes” have been altered to that of the glucocorticoid receptor. These RAR-P-GR receptors bind to DNA as heterodimeric complexes with RXR. Specifically, the RAR-P-GR receptors bind retinoic acid response elements designated R5G, comprised of two RAR half sites (nucleotide sequence 5′-GGTTCA-3′) separated by 5 base pairs in which the 3′-half site has been modified to that of a glucocorticoid receptor half site, 5′-AGAACA-3′. To allow for various in transfection efficiency a β-galactosidase expression plasmid (0.01 μg/well) was used as an internal control. Alternatively, the assay was performed in a 96-well microtiter plate format (5000 cells/well) in a manner which was identical to that described above except ⅕ of the amount of the DNA-calcium phosphate precipitant (20 μl instead of 100 Al) was applied to each well. Eighteen hours after introduction of the DNA precipitants, cells were rinsed with phosphate buffered saline (PBS) and fed with D-MEM (Gibco-BRL) containing 10% activated charcoal extracted fetal bovine serum (Gemini Bio-Products). After rinsing with PBS cells were lysed with luciferase activity was measured as previously described in de Wet Mol. Cell. Biol. 1987, 7, 725-737. Luciferase values represent the mean±SEM of triplicate determinations normalized to β-galactosidase activity. The results of the PGR assay are also expressed in EC50 numbers (nanomolar concentration).

RARβ = RARβ (Homo sapiens, UniProt P10826, E106G/G107S/G110V); test: PGR assay (RAR-P-GR holoreceptor transactivation), RARβ; assay type: cell-based; conditions: for Emax: 18 h; for EC50: PGR assay (transactivation), CV-1 cells, luciferase reporter
Chain of RARβ (P10826 whole entry E106G/G107S/G110V, one chain of several): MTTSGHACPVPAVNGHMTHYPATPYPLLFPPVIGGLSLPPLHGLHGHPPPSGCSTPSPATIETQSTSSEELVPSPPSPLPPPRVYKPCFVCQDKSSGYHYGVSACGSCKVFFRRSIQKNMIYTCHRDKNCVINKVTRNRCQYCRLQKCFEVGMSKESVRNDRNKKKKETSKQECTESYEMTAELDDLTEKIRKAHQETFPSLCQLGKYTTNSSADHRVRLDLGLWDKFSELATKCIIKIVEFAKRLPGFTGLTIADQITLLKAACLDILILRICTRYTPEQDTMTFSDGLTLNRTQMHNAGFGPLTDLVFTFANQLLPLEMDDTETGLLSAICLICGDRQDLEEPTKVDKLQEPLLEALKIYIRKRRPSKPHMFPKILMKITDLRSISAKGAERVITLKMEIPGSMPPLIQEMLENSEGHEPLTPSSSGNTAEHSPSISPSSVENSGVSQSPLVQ
From the text: as §1, §2, §3

[1] = efficiency relative to all-trans-retinoic acid, PGR assay

Compound | EC50 (RARγ) [µM] | % Efficiency RARγ (RARγ) [%] | Emax (RARβ; [1]) [%] | EC50 (RARβ) [µM] | % Efficiency RARβ (RARβ; [1]) [%]
CC(C)(C)c1ccc(C#Cc2ccc(C(=O)O)c(F)c2)cc1Oc1ccc([N+](=O)[O-])cc1 [Compound 11, 4-[[4′-tert-Butyl-3′-(4″-nitro)phenoxy]phenylethynyl]-2-fluoro-benzoic Acid] | > 10 | 1 | 3 | > 10 | 
COC(=O)c1ccc(Oc2cc(C#Cc3ccc(C(=O)O)c(F)c3)ccc2C(C)(C)C)cc1 [Compound 10, 4-[[4′-tert-Butyl-3′-(4″-carbomethoxy)phenoxy]phenylethynyl]-2-fluorobenzoic Acid] | > 10 | 0 | 0 | > 10 | 
CC(C)(C)c1ccc(C#Cc2ccc(C(=O)O)cn2)cc1Oc1ccc(C(F)(F)F)cc1 [Compound 6, 6-[[4′-tert-Butyl-3′-(4″-trifluomethyl)phenoxy]phenylethynyl]-3-nicotinic Acid] | > 10 | 70 |  | > 10 | 0
CC(C)(C)c1ccc(C(=O)Nc2ccc(C(=O)O)c(F)c2)cc1Oc1ccc(C(F)(F)F)cc1 [Compound 13, 4-[[4′-tert-Butyl-3′-(4″-trifluoromethyl)phenoxy]benzoylamino]-2-fluorobenzoic Acid] | > 10 | 4 | 5 | > 10 | 

Source: patent US6660755B2, “Substituted diaryl or diheteroaryl methans, ethers and amines having retinoid agonist, antagonist or inverse agonist type biological activity” (Allergan, Inc., priority 1997, dated 2003)
